Measured values as given in paper PMC10687119, “Quaternary Ammonium Salts of Cationic Lipopeptides with Lysine Residues — Synthesis, Antimicrobial, Hemolytic and Cytotoxic Activities” (Probiotics and Antimicrobial Proteins, 2023).
In brackets after ≈: the same amount, converted by molar mass. Read-outs that look alike come from different tables or passages of the source. Where a SMILES comes first, the peptide text is derived from it. The star is where a group is joined. Stearoyl = CCCCCCCCCCCCCCCCCC(=O)*; Palmitoyl = CCCCCCCCCCCCCCCC(=O)*

Tests used:
[1] = tested on: E. faecium ATCC 700221; assay type: cell-based, Enterococcus faecium
Procedure: (§1) The Acinetobacter baumannii ATCC BAA-1605, Enterococcus faecium ATCC 700221, Klebsiella aerogenes ATCC 13048, Klebsiella pneumoniae ATCC 700603, Pseudomonas aeruginosa ATCC 9027, Staphylococcus aureus ATCC 33591, Candida glabrata ATCC 15126 strains were acquired from the American Type Culture Collection (ATCC, Manassas, USA). All the strains were stored at −80 °C in Roti-Store cryo vials (Carl Roth GmbH, Germany) and before the tests were transferred into fresh Mueller–Hinton broth (MHB, Becton Dickinson, Poland) for bacteria or RPMI-1640 (Sigma-Aldrich, Germany) for fungi and incubated for 24 h at 37 °C. Then, the cultures were cultured on the Mueller–Hinton agar (BioMaxima, Poland) or Sabouraud dextrose agar (SDA, BioMaxima) plates, respectively, and incubated as just mentioned. For microbiological assays, a minimum of three to five well-isolated colonies of the same morphological type were carefully picked from the agar cultures. These colonies were transferred with sterile loop into fresh microbiological medium and incubated with shaking (100 rpm) at 37 °C until they reached logarithmic phase of growth. Cell densities for all assays were adjusted through spectrophotometric measurements (Multiskan GO Microplate Spectrophotometer, Thermo Fisher Scientific, Finland) at 600 and 530 nm for bacteria and fungi, respectively.
(§2) The MICs were determined by broth microdilution method according to the Clinical and Laboratory Standard Institute guidelines. For this purpose, initial inoculums of bacteria (5 × 10^5 CFU/mL) in MHB and yeasts (2 × 10^3 CFU/mL) in RPMI-1640 with 2% D-glucose were exposed to the ranging concentration of lipopeptides (1–512 μg/mL) and incubated at 37 °C for 18 h and 24 h, respectively. The experiments were conducted on 96-well microtiter polystyrene plates (Kartell, Italy). The growth was assessed visually after incubation and the MIC was assumed as the lowest peptide concentration at which a noticeable growth of microorganisms was inhibited. Benzalkonium chloride (Sigma-Aldrich, Germany) was used as reference compound. All experiments were conducted in triplicate.

[2] = tested on: S. aureus ATCC 33591; assay type: cell-based, Staphylococcus aureus
Procedure: as §1, §2

[3] = tested on: K. pneumoniae ATCC 700603; assay type: cell-based, Klebsiella pneumoniae
Procedure: as §1, §2

[4] = tested on: A. baumannii ATCC BAA 1605; assay type: cell-based, Acinetobacter baumannii
Procedure: as §1, §2

[5] = tested on: P. aeruginosa ATCC 9027; assay type: cell-based, Pseudomonas aeruginosa
Procedure: as §1, §2

[6] = tested on: K. aerogenes ATCC 13048; assay type: cell-based, Klebsiella aerogenes
Procedure: as §1, §2

[7] = tested on: C. glabrata ATCC 15126; assay type: cell-based, Candida glabrata
Procedure: as §1, §2

[8] = tested on: human red blood cells (RBCs); assay type: cell-based; conditions: red cells of human
Procedure: The hemolysis assay was conducted using a procedure described previously. For this purpose, human red blood cells (RBCs) isolated from K2EDTA Single Donor Human Whole blood (Innovative Research, Inc, MI, USA) were rinsed with Phosphate-buffer saline (PBS, pH 7.4±0.05, composition - KCl 2.7 mM, NaCl 140 mM, phosphate 10mM; AppliChem GmbH, Germany) by centrifugation for 10 min at 800 × g. This process was repeated 3 times and the RBCs were resuspended in PBS. Then, the stock solution of RBCs was added to the serial dilution of lipopeptides on 96-well polystyrene plates to reach a final volume of 100 μL with a 4% concentration of erythrocytes (v/v) and a concentration range of 1-512 μg/mL of tested compounds. The control wells for 0% and 100% hemolysis consisted of RBCs suspended in PBS and 1% of Triton X-100 (Sigma-Aldrich, Germany), respectively. Benzalkonium chloride (Sigma-Aldrich, Germany) was used as reference compound. Subsequently, the plates were incubated for 60 min at 37 °C and then centrifuged at 800 × g for 10 min at 4 °C (Sorvall ST […] Centrifuge, Thermo Scientific). The supernatant was carefully […] to new microtiter plates. The release of hemoglobin was monitored absorbance measurements at 540 nm (MultiskanTM GO Microplate Spectrophotometer, Thermo Scientific). All experiments were conducted in triplicate. HC50 was calculated using an ic50.tk tool.

[9] = tested on: human keratinocyte cell line (HaCaT); assay type: cell-based; conditions: 24 h
Procedure: The immortalized human keratinocyte cell line (HaCaT), obtained from CLS (Cell Line Service, Germany) was cultured in DMEM-high glucose (Dulbecco’s Modified Eagle Medium) supplemented with 10% fetal bovine serum, 2 mM L-glutamine, 100 U/mL penicillin and 100 μg/mL streptomycin (Sigma-Aldrich; Merck KGaA) at 37 °C in a humidified atmosphere with 5% CO2. Cells were trypsinized, and the medium was renewed 2–3 times per week. The cytotoxicity of compounds was assessed by colorimetric CellTilter 96® Aqueous One Solution Cell Proliferation Assay (Promega, USA), containing a tetrazolium compound according to the manufacturer’s instructions. In brief, 7 × 10^3 HaCaT cells per well were plated on 96-well plates and incubated per night to adhere to the cultured dishes. After that time, different concentrations of the tested compounds ranging from 512 to 1 μg/mL were applied to the wells. Every compound was medium-soluble at 37 °C; thus, the non-treated cells were negative control. Serial dilutions of the tested compounds were always prepared before use. Cells were incubated with drugs for 24 h, and then, 20 μL of the CellTiter 96®AqueousOne Solution Reagent was added to each well containing treated cells in 100 µl of culture medium. After 4 h of incubation at 37 °C, the absorbance at 490 nm was recorded using a microplate reader (Epoch, BioTek Instruments, USA). The quantity of formazan product as measured by the amount of 490 nm absorbance is directly proportional to the number of living cells in culture. Benzalkonium chloride (Sigma-Aldrich, Germany) was used as reference compound. At least three independent experiments with two replicates were conducted for each concentration of a compound, and the IC50 values were calculated using GraphPad Prism 8 software.

[10] = S. aureus ATCC 33591, 18 h, 37 °C
[11] = C. glabrata ATCC 15126, 24 h, 37 °C

Row | Compound | MIC ([1]; ATCC 700221, 18 h) [µg/mL] | MIC ([2]; ATCC 33591, 18 h) [µg/mL] | MIC ([3]; ATCC 700603, 18 h) [µg/mL] | MIC ([4]; ATCC BAA 1605, 18 h) [µg/mL] | MIC ([5]; ATCC 9027, 18 h) [µg/mL] | MIC ([6]; ATCC 13048, 18 h) [µg/mL] | MIC ([7]; ATCC 15126, 24 h) [µg/mL] | HC50 [8] [µg/mL] | IC50 [9] [µg/mL] | MIC [2, 10] [µg/mL] | MIC [7, 11] [µg/mL] | MIC ([1]; E. faecium ATCC 700221, 18 h, 37 °C) [µg/mL] | MIC ([3]; K. pneumoniae ATCC 700603, 18 h, 37 °C) [µg/mL] | MIC ([4]; A. baumannii ATCC BAA 1605, 18 h, 37 °C) [µg/mL] | MIC ([5]; P. aeruginosa ATCC 9027, 18 h, 37 °C) [µg/mL] | MIC ([6]; K. aerogenes ATCC 13048, 18 h, 37 °C) [µg/mL] | IC50 ([9]; HaCaT) [µg/mL]
1 | CCCCCCCCCCCCCC(=O)N[C@@H](CCCCN)C(N)=O [Peptide 1M, C14-K-NH2] | 16 (≈ 45 µM) | 16 (≈ 45 µM) | >512 | >512 | >512 | >512 | >512 | 477.61 ± 28.02 | 4.33 ± 1.12 (≈ 12.2 µM) |  |  |  |  |  |  |  | 
2 | CCCCCCCCCCCCCCCC(=O)N[C@@H](CCCCN)C(N)=O [Peptide 1P, C16-K-NH2] | 4 (≈ 10.4 µM) | >512 | >512 |  | >512 | >512 | >512 | >512 | 1.74 ± 0.49 (≈ 4.54 µM) |  |  |  |  |  |  |  | 
3 | CCCCCCCCCCCCCCCCCC(=O)N[C@@H](CCCCN)C(N)=O [Peptide 1S, C18-K-NH2] |  |  | >512 | >512 | >512 | >512 |  | >512 | 8.34 ± 1.07 (≈ 20.3 µM) | > 512 |  |  |  |  |  |  | 
4 | CCCCCCCCCCCCCCCCCC(=O)N[C@@H](CCCC[N+](C)(C)C)C(N)=O [Peptide 1Sq, C18-K(Me3)^+-NH2] |  |  | >512 | >512 | >512 | >512 | 4 to 8 | 16.13 ± 9.88 | 14.13 ± 0.39 |  | 4 |  |  |  |  |  | 
5 | CCCCCCCCCCCCCCCC(=O)N[C@@H](CCCCN)C(=O)N[C@@H](CCCCN)C(N)=O [Peptide 2P, C16-KK-NH2] | 8 (≈ 15.6 µM) |  | 128 (≈ 250 µM) | 64 (≈ 125 µM) | 16 (≈ 31.3 µM) | 32 (≈ 62.5 µM) | 16 (≈ 31.3 µM) | 55.21 ± 1.69 | 10.27 ± 1.59 (≈ 20.1 µM) |  |  |  |  |  |  |  | 
6 | CCCCCCCCCCCCCCCCCC(=O)N[C@@H](CCCCN)C(=O)N[C@@H](CCCCN)C(N)=O [Peptide 2S, C18-KK-NH2] | 4 (≈ 7.41 µM) |  | 64 (≈ 119 µM) | 32 (≈ 59.3 µM) | 128 (≈ 237 µM) | 32 (≈ 59.3 µM) | 8 (≈ 14.8 µM) | 21.88 ± 0.68 | 4.33 ± 0.79 (≈ 8.02 µM) |  |  |  |  |  |  |  | 
7 | CCCCCCCCCCCCCCCC(=O)N[C@@H](CCCCN)C(=O)N[C@@H](CCCCN)C(=O)N[C@@H](CCCCN)C(N)=O [Peptide 3P, C16-KKK-NH2] | 8 (≈ 12.5 µM) |  | 32 (≈ 50 µM) | 64 (≈ 100 µM) | 32 (≈ 50 µM) | 8 (≈ 12.5 µM) | 64 (≈ 100 µM) | 135.46 ± 8.69 | 45.40 ± 20.45 (≈ 70.9 µM) |  |  |  |  |  |  |  | 
8 | CCCCCCCCCCCCCCCCCC(=O)N[C@@H](CCCCN)C(=O)N[C@@H](CCCCN)C(=O)N[C@@H](CCCCN)C(N)=O [Peptide 3S, C18-KKK-NH2] | 4 (≈ 5.99 µM) |  | 8 (≈ 12 µM) | 32 (≈ 47.9 µM) | 16 (≈ 24 µM) | 4 (≈ 5.99 µM) | 8 (≈ 12 µM) | 32.11 ± 1.54 | 88.51 ± 4.72 (≈ 132 µM) |  |  |  |  |  |  |  | 
9 | CCCCCCCCCCCCCCCC(=O)N[C@@H](CCCCN)C(=O)N[C@@H](CCCCN)C(=O)N[C@@H](CCCCN)C(=O)N[C@@H](CCCCN)C(N)=O [Peptide 4P, C16-KKKK-NH2] (Palmitoyl-KKKK-NH2) | 4 (≈ 5.21 µM) |  | 32 (≈ 41.7 µM) | 64 (≈ 83.3 µM) | 32 (≈ 41.7 µM) | 8 (≈ 10.4 µM) | 64 (≈ 83.3 µM) | >512 | 126.80 ± 27.26 (≈ 165 µM) |  |  |  |  |  |  |  | 
10 | CCCCCCCCCCCCCCCCCC(=O)N[C@@H](CCCCN)C(=O)N[C@@H](CCCCN)C(=O)N[C@@H](CCCCN)C(=O)N[C@@H](CCCCN)C(N)=O [Peptide 4S, C18-KKKK-NH2] (Stearoyl-KKKK-NH2) | 4 (≈ 5.02 µM) |  | 8 (≈ 10 µM) | 16 (≈ 20.1 µM) | 8 (≈ 10 µM) | 4 (≈ 5.02 µM) | 16 (≈ 20.1 µM) | 48.44 ± 4.12 | 155.34 ± 11.20 (≈ 195 µM) |  |  |  |  |  |  |  | 
11 | benzalkonium chloride [BAC, reference compound] |  |  |  |  |  |  |  |  |  | 4 | 4 | 4 | 16 | 16 | 32 | 16 | 11.70 ± 0.76
